{"source": "patent US20040209270A1", "about": "“Method for identifying macrocyclic polyketides” (priority 2001, published 2004)"}
{"system": "biosensor E. coli SM 101 (EBZ512, pEBZ511, pEBZ514)", "assay": "Luminescence measurements in the agar-plate diffusion assay with the E. coli biosensor system (luciferase reporter under mph(A) promoter / MphR(A) control)", "assay_type": "cell-based", "conditions": "assay discs, 28° C., 2 to 4 hours or 15 to 24 hours, FIG. 3", "method": "The agar-plate diffusion assay was incubated at 28° C. for 2 to 4 hours or 15 to 24 hours and luminescence was recorded using a Berthold Luminograph LB980 (FIGS. 3, 4 and 5). If luminescence is stimulated, it is detectable within a diffusion zone around the sample placed. If the sample assayed has, at the same time, an anti-bacterial activity against the sensor organism, which is noticeable as a zone of inhibition in the very preferred embodiment of the longer incubation, then the stimulation of luminescence is detectable outside this halo of inhibition in the sub-lethal concentration range.\nAgar-plate diffusion assay and luminescence measurements using the E. coli biosensor system. Illustration of the selectivity of the biological sensor component. The numbers given in the information on the test substances indicate the amounts of substance applied in μg.\nAgar-plate diffusion assay and luminescence measurements using the E. coli biosensor system. Exemplary illustration of the stimulation of luminescence of the biological sensor component as a function of time. The numbers given in the information on the test substances indicate the amounts of substance applied in μg."}
{"molecule": "CC[C@H]1OC(=O)[C@H](C)[C@@H](O[C@H]2C[C@@](C)(OC)[C@@H](O)[C@H](C)O2)[C@H](C)[C@@H](O[C@@H]2O[C@H](C)C[C@H](N(C)C)[C@H]2O)[C@](C)(O)C[C@@H](C)CN(C)[C@H](C)[C@@H](O)[C@]1(C)O", "note": "[azithromycin]", "stimulation of luminescence of the biosensor system": "stimulated"}
{"molecule": "O=C(N[C@H](CO)[C@H](O)c1ccc([N+](=O)[O-])cc1)C(Cl)Cl", "note": "[chloramphenicol]", "stimulation of luminescence of the biosensor system": "do not cause a stimulation of luminescence"}
{"molecule": "CC[C@H]1OC(=O)[C@H](C)[C@@H](O[C@H]2C[C@@](C)(OC)[C@@H](O)[C@H](C)O2)[C@H](C)[C@@H](O[C@@H]2O[C@H](C)C[C@H](N(C)C)[C@H]2O)[C@](C)(OC)C[C@@H](C)C(=O)[C@H](C)[C@@H](O)[C@]1(C)O", "note": "[clarithromycin]", "stimulation of luminescence of the biosensor system": "indicates"}
{"molecule": "CC[C@H]1OC(=O)[C@H](C)[C@@H](O[C@H]2C[C@@](C)(OC)[C@@H](O)[C@H](C)O2)[C@H](C)[C@@H](O[C@@H]2O[C@H](C)C[C@H](N(C)C)[C@H]2O)[C@](C)(O)C[C@@H](C)C(=O)[C@H](C)[C@@H](O)[C@]1(C)O", "note": "[erythromycin]", "stimulation of luminescence of the biosensor system": "indicates"}
{"molecule": "C[C@@H]1O[C@@H]1P(=O)(O)O", "note": "[fosfomycin]", "stimulation of luminescence of the biosensor system": "do not cause a stimulation of luminescence"}
{"molecule": "CC[C@H]1OC(=O)[C@H](C)[C@@H](O[C@@H]2O[C@H](C)C[C@H](N(C)C)[C@H]2O)[C@@H](C)C[C@@H](C)C(=O)/C=C/[C@]1(C)O", "note": "[methymycin]", "stimulation of luminescence of the biosensor system": "stimulated"}
{"molecule": "CC[C@H]1OC(=O)[C@H](C)C(=O)[C@H](C)[C@@H](O[C@@H]2O[C@H](C)C[C@H](N(C)C)[C@H]2O)[C@@H](C)C[C@@H](C)C(=O)/C=C/[C@H]1C", "note": "[narbomycin]", "stimulation of luminescence of the biosensor system": "indicates"}
{"molecule": "CO[C@@H]1[C@@H](OC(N)=O)[C@@H](O)[C@H](Oc2ccc3c(O)c(NC(=O)c4ccc(O)c(CC=C(C)C)c4)c(=O)oc3c2C)OC1(C)C", "note": "[novobiocin]", "stimulation of luminescence of the biosensor system": "do not cause a stimulation of luminescence"}
{"molecule": "CO[C@H]1C[C@H](O[C@H]2[C@H](C)[C@@H](O[C@@H]3O[C@H](C)C[C@H](N(C)C)[C@H]3O)[C@@H](C)C[C@@]3(CO3)C(=O)[C@H](C)[C@@H](O)[C@@H](C)[C@@H](C)OC(=O)[C@@H]2C)O[C@@H](C)[C@@H]1O", "note": "[oleandomycin]", "stimulation of luminescence of the biosensor system": "indicates"}
{"molecule": "CC[C@H]1OC(=O)[C@H](C)C(=O)[C@H](C)[C@@H](O[C@@H]2O[C@H](C)C[C@H](N(C)C)[C@H]2O)[C@@H](C)C[C@@H](C)C(=O)/C=C/[C@]1(C)O", "note": "[picromycin]", "stimulation of luminescence of the biosensor system": "indicates"}
{"molecule": "CN[C@H](CC(C)C)C(=O)N[C@H]1C(=O)N[C@@H](CC(N)=O)C(=O)N[C@H]2C(=O)N[C@H]3C(=O)N[C@H](C(=O)N[C@H](C(=O)O)c4cc(O)cc(O)c4-c4cc3ccc4O)[C@H](O)c3ccc(c(Cl)c3)Oc3cc2cc(c3O[C@@H]2O[C@H](CO)[C@@H](O)[C@H](O)[C@H]2O[C@H]2C[C@](C)(N)[C@H](O)[C@H](C)O2)Oc2ccc(cc2Cl)[C@H]1O", "note": "[vancomycin]", "stimulation of luminescence of the biosensor system": "do not cause a stimulation of luminescence"}
{"system": "microbial biosensor cell (E. coli biosensor system)", "assay": "Detection of a macrolide-(erythromycin-) producing organism in situ, agar-plate diffusion assay with the biosensor", "assay_type": "cell-based", "conditions": "assay disc or culture-covered agar blocks placed on biosensor suspension in soft agar; FIG. 5", "text": "For this purpose, the microbial biosensor cell was used in the agar-plate diffusion assay. Agar blocks were placed on the biosensor suspension embedded in soft agar. These agar blocks were covered either with Saccharopolyspora erythraea DSM 40517 described as erythromycin producer or with Streptomyces viridochromogenes DSM 40721 described as avilamycin producer. Another agar block contained no growth.\nAgar-plate diffusion assay and luminescence measurements using the E. coli biosensor system. In situ stimulation of luminescence by an erythromycin-producing Saccharopolyspora erythraea culture. The number given in the information on the reference substance erythromycin indicates the amount of substance applied in μg."}
{"molecule": "CC[C@H]1OC(=O)[C@H](C)[C@@H](O[C@H]2C[C@@](C)(OC)[C@@H](O)[C@H](C)O2)[C@H](C)[C@@H](O[C@@H]2O[C@H](C)C[C@H](N(C)C)[C@H]2O)[C@](C)(O)C[C@@H](C)C(=O)[C@H](C)[C@@H](O)[C@]1(C)O", "note": "[erythromycin]", "stimulation of luminescence of the biosensor system": "stimulation of luminescence was detectable"}
